Patent US8008487B2, “Substituted thieno[2,3-D]pyrimidines as fungicides” (priority 2004, dated 2011)

What was measured:
Type in all cases: in vivo
Colletotricum lagenarium = experiment: Cucumber Anthracnose (COLLLA), whole-plant fungicide test; details: Cucumis sativus, 24 h, one-day protectant test, read-out: COLLLA percent control of disease; for pest or weed control at 200 ppm: foliar, 200 ppm on foliage; for pest or weed control at 100 ppm: 100 ppm (footnote a)
[1] = test system: Puccinia recondita tritici; experiment: Leaf Rust of Wheat (PUCCRT), whole-plant fungicide test; details: Puccinia recondita, 24 h, one-day protectant test, read-out: PUCCRT percent control of disease; for pest or weed control at 200 ppm: foliar, 200 ppm on foliage; for pest or weed control at 100 ppm: 100 ppm (footnote a)
Phytophthora infestans = experiment: whole plant or invertebrate; details: Phytophthora infestans, in Solanum lycopersicum, 24 h; for pest or weed control at 200 ppm: foliar, read-out: PHYTIN percent control of disease, 200 ppm on foliage, tomato, one-day protectant test; for pest or weed control at 100 ppm: read-out: PHYTIN percent control of disease, 100 ppm (footnote a), tomato, one-day protectant test
Erysiphe cichoracaerum = experiment: Cucumber Powdery Mildew (ERYSCI), whole-plant fungicide test; details: Erysiphe, foliar, 24 h, 200 ppm on foliage, one-day protectant test, read-out: ERYSCI percent control of disease
Leptosphaeria nodorum = experiment: Glume Blotch of Wheat (LEPTNO), whole-plant fungicide test; details: Parastagonospora nodorum, foliar, 24 h, 200 ppm on foliage, one-day protectant test, read-out: LEPTNO percent control of disease
Magnaporthe grisea = experiment: whole plant or invertebrate; details: Pyricularia oryzae, in Oryza sativa, foliar, 24 h, read-out: PYRIOR percent control of disease, 200 ppm on foliage, rice, one-day protectant test
[2] = test system: Erysiphe graminis f. sp. tritici; experiment: Powdery Mildew of Wheat (ERYSGT), whole-plant fungicide test; details: Blumeria graminis, 24 h, 100 ppm (footnote a), one-day protectant test, read-out: ERYSGT percent control of disease
Septoria tritici = experiment: Speckled Leaf Blotch of Wheat (SEPTTR), whole-plant fungicide test; details: Zymoseptoria tritici, foliar, 24 h, 200 ppm on foliage, one-day protectant test, read-out: SEPTTR percent control of disease
Cochliobolus sativus = experiment: Spot Blotch of Wheat (COCHSA), whole-plant fungicide test; details: Bipolaris sorokiniana, foliar, 24 h, 200 ppm on foliage, one-day protectant test, read-out: COCHSA percent control of disease
Protocol: The activity of the compounds as effective fungicides was determined by applying the compounds to plants and observing control of fungal disease. The compounds were formulated at 200 ppm in 10 vol. percent acetone plus 90 vol. percent Triton X water (deionized water 99.99 wt. percent+0.01 wt. percent Triton X100), giving a “formulated test compound.” In a few cases, compounds were formulated at 100, 75 or 8.3 ppm rather than 200 ppm in 10 vol. percent acetone plus 90 vol. percent Triton X water (deionized water 99.99 wt. percent+0.01 wt. percent Triton X100), giving a ‘formulated test compound’. The compounds were tested for ability to control plant diseases in a 1-day protectant test (1DP) or a 2-day curative test (2DC). Formulated test compounds were applied to plants using a turn table sprayer fitted with two opposing air atomization nozzles which delivered approximately 1500 L/ha of spray volume. Plants were inoculated with spores of the fungus the next day (1DP), then incubated in an environment conducive to disease development. In a few cases, the compounds were tested for ability to control plant disease in a two-day curative test. Plants were inoculated with spores of the fungus two days prior to compound application, and incubated in an environment conducive to disease development both before and after compound application (2DC). For all types of tests, disease severity was evaluated 4 to 28 days later, depending on the speed of disease development.
Each pot contained 3-8 seedlings. These plants were sprayed until wet with the formulated test compound. On the following day, the leaves were inoculated with an aqueous spore suspension of Cochliobolus sativus and the plants were kept in high humidity for one to two days to permit spores to germinate and infect the leaf. The plants were then transferred to a greenhouse until disease developed on untreated control plants.
The following table presents the activity of typical compounds of the present invention when evaluated in these experiments. The effectiveness of the test compounds in controlling disease was determined by assessing the severity of disease on treated plants, then converting the severity to percent control based on the level of disease on untreated, inoculated plants.
TABLE 4: Activity of compounds as fungicides. Data are the level at which the given disease was controlled when the given compound was applied to the foliage of the plant at 200 ppm. In a few cases (noted in the table) the compound was applied to the plant at 100, 75 or 8.3 ppm. The plant was inoculated with the fungus one day after treatment. In a few cases (noted in the table) the plant was inoculated with the fungus two days before treatment.

Structure (SMILES)	pest or weed control at 200 ppm (Colletotricum lagenarium) [%]	pest or weed control at 200 ppm [1] [%]	pest or weed control at 200 ppm (Phytophthora infestans) [%]	pest or weed control at 200 ppm (Erysiphe cichoracaerum) [%]	pest or weed control at 200 ppm (Leptosphaeria nodorum) [%]	pest or weed control at 200 ppm (Magnaporthe grisea) [%]	pest or weed control at 100 ppm [2] [%]	pest or weed control at 200 ppm (Septoria tritici) [%]	pest or weed control at 200 ppm (Cochliobolus sativus) [%]	pest or weed control at 100 ppm (Colletotricum lagenarium) [%]	pest or weed control at 100 ppm [1] [%]	pest or weed control at 100 ppm (Phytophthora infestans) [%]
COc1ccc(C(C)Nc2ncnc3scc(Cl)c23)cc1C (stereo not drawn) [Compound 63]	0 to 49	80 to 100	50 to 79	80 to 100	50 to 79	80 to 100	80 to 100					
COc1ccc(C(C)Nc2ncnc3scc(Cl)c23)cc1F (stereo not drawn) [Compound 66]	0 to 49	80 to 100	50 to 79	80 to 100	0 to 49	80 to 100	80 to 100					
CC(Nc1ncnc2scc(Cl)c12)c1ccc2c(c1)OCO2 (stereo not drawn) [Compound 61]	0 to 49	80 to 100	0 to 49	80 to 100	80 to 100	50 to 79		50 to 79	50 to 79			
COCC(Nc1ncnc2scc(Cl)c12)c1ccccc1 (stereo not drawn) [Compound 62]	0 to 49	80 to 100	0 to 49	80 to 100	0 to 49	80 to 100		50 to 79	0 to 49			
Clc1ccc(CCNc2ncnc3scc(Cl)c23)cn1 [Compound 65]	0 to 49	80 to 100	80 to 100	80 to 100	0 to 49	0 to 49	0 to 49					
CC(COc1cccc(Cl)n1)Nc1ncnc2scc(Cl)c12 (stereo not drawn) [Compound 57]	0 to 49	80 to 100	0 to 49	50 to 79	0 to 49	80 to 100		80 to 100	0 to 49			
CC(=O)Nc1ccc(C(C)Nc2ncnc3scc(Cl)c23)cc1 (stereo not drawn) [Compound 59]	0 to 49	80 to 100	0 to 49	50 to 79	0 to 49	80 to 100		50 to 79	0 to 49			
CC(Nc1ncnc2scc(Cl)c12)c1ccc(NC=O)cc1 (stereo not drawn) [Compound 58]	50 to 79	80 to 100	0 to 49	0 to 49	0 to 49	80 to 100		50 to 79	0 to 49			
COc1ccc(C(C)Nc2ncnc3scc(F)c23)cn1 (stereo not drawn) [Compound 77]							0 to 49			50 to 79	80 to 100	80 to 100
CC(Nc1ncnc2scc(Br)c12)c1ccc(F)nc1 (stereo not drawn) [Compound 60]	80 to 100	80 to 100	0 to 49	80 to 100	0 to 49	80 to 100		0 to 49	0 to 49			
CC(Nc1ncnc2scc(F)c12)c1ccc(OCC(F)(F)F)cc1 (stereo not drawn) [Compound 78]							80 to 100			80 to 100	80 to 100	80 to 100
COc1ccc(C(C)Nc2ncnc3scc(F)c23)cc1 (stereo not drawn) [Compound 76, (5-Fluorothieno[2,3-d]pyrimidin-4-yl)-[1-(4-methoxyphenyl)ethyl]amine]							0 to 49			50 to 79	80 to 100	80 to 100
